# ChEMBL document CHEMBL1201862, “PubChem BioAssay data set” (2004)
#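 Five compound concentrations were applied to cells in 96-well plates for 48 hours; endpoints were derived by simple linear interpolation of the resulting dose-response curve. At the GI50, growth is halved.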 Activity calls are given as the source filed them. Cut-off read from the data, not from the text of the source: active = GI50 up to about 1.1 µM and inactive = higher.
# Experiments:
# Assay in all cases: NCI anticancer screen, dose series, 48 h
# [1] = test system: HCC 2998
# [2] = test system: XF498
# [3] = test system: NCI-H226
# [4] = test system: HT-29
# [5] = test system: OVCAR-8
# [6] = test system: SN12C
# [7] = test system: SNB-19
# [8] = test system: HCT-116
# [9] = test system: Malme-3M
# [10] = test system: CAKI-1
# [11] = test system: NCI-H522
# [12] = test system: UACC-257
# [13] = test system: DMS-114
# [14] = test system: 786-0
# [15] = test system: A549
# [16] = test system: OVCAR-3
# [17] = test system: MOLT-4
# [18] = test system: LOX IMVI
# [19] = test system: EKVX
# [20] = test system: HCT-15
# [21] = test system: KM12
# [22] = test system: ACHN
# [23] = test system: IGROV-1
# [24] = test system: SF-539
# [25] = test system: U-251
# [26] = test system: M14
# [27] = test system: SNB-78
# [28] = test system: SF-295
# [29] = test system: SK-MEL-28
# [30] = test system: SK-MEL-2
# [31] = test system: KM-20L2
# [32] = test system: NCI-H23
# [33] = test system: SK-OV-3
# [34] = test system: HL-60
# [35] = test system: OVCAR-4
# [36] = test system: CCRF-CEM
# [37] = test system: UACC-62
# [38] = test system: K562
# [39] = test system: SW-620
# [40] = test system: A498
# [41] = test system: SR
# [42] = test system: M19-MEL
# [43] = test system: HOP-62
# [44] = test system: SK-MEL-5
# [45] = test system: NCI-H460
# [46] = test system: TK-10
# [47] = test system: OVCAR-5
# [48] = test system: RPMI-8226
# [49] = test system: UO-31
# [50] = test system: LXFL 529
# [51] = test system: COLO 205
# [52] = test system: SNB-75
# [53] = test system: SF-268
# [54] = test system: RXF 393
# [55] = test system: HOP-92
# [56] = test system: MCF7
# [57] = test system: T47D
# [58] = test system: PC-3
# [59] = test system: MDA-MB-435
# [60] = test system: MDA-MB-231
# [61] = test system: BT-549
# [62] = test system: DU-145
# [63] = test system: MDA-N
# [64] = test system: NCI/ADR-RES
# [65] = test system: Hs-578T
# [66] = test system: DLD-1
# [67] = test system: DMS-273
compound,measurement,setting,value
N#C/C(=C/c1cccc2ccccc12)C(=O)c1ccccc1,GI50,[1],23.6 µM (inactive)
same,GI50,[2],20.1 µM (inactive)
same,GI50,[3],17.7 µM (inactive)
same,GI50,[4],> 100 µM (inactive)
same,GI50,[5],33 µM (inactive)
same,GI50,[6],33.2 µM (inactive)
same,GI50,[7],19.9 µM (inactive)
same,GI50,[8],18.5 µM (inactive)
same,GI50,[9],21.5 µM (inactive)
same,GI50,[10],23.9 µM (inactive)
same,GI50,[11],21.5 µM (inactive)
same,GI50,[12],> 10 µM (inactive)
same,GI50,[13],51.6 µM (inactive)
same,GI50,[14],16.3 µM (inactive)
same,GI50,[15],> 10 µM (inactive)
same,GI50,[16],48.6 µM (inactive)
same,GI50,[17],14.7 µM (inactive)
same,GI50,[18],19.5 µM (inactive)
same,GI50,[19],> 10 µM (inactive)
same,GI50,[20],19 µM
same,GI50,[21],20.9 µM (inactive)
same,GI50,[22],> 10 µM (inactive)
same,GI50,[23],24.3 µM (inactive)
same,GI50,[24],17.7 µM (inactive)
same,GI50,[25],19 µM (inactive)
same,GI50,[26],16.9 µM (inactive)
same,GI50,[27],42.9 µM (inactive)
same,GI50,[28],20 µM (inactive)
same,GI50,[29],13.9 µM (inactive)
same,GI50,[30],18.9 µM (inactive)
same,GI50,[31],19 µM (inactive)
same,GI50,[32],17.8 µM (inactive)
same,GI50,[33],> 100 µM (inactive)
same,GI50,[34],19.4 µM (inactive)
same,GI50,[35],> 100 µM (inactive)
same,GI50,[36],16.6 µM (inactive)
same,GI50,[37],18.3 µM (inactive)
same,GI50,[38],> 10 µM (inactive)
same,GI50,[39],16.8 µM (inactive)
same,GI50,[40],23.1 µM (inactive)
same,GI50,[41],26.9 µM (inactive)
same,GI50,[42],28.4 µM (inactive)
same,GI50,[43],18.3 µM (inactive)
same,GI50,[44],> 10 µM (inactive)
same,GI50,[45],27.5 µM (inactive)
same,GI50,[46],35.4 µM (inactive)
same,GI50,[47],23.6 µM (inactive)
same,GI50,[48],22.3 µM (inactive)
same,GI50,[49],18.4 µM (inactive)
COc1ccc2c(c1)CC[C@@H]1C2CC[C@]2(C)C(=O)N(CCN3CCCCC3)C(=O)CC12 (stereo partly drawn),GI50,[4],51.5 µM (inactive)
same,GI50,[50],> 100 µM (inactive)
same,GI50,[7],> 100 µM (inactive)
same,GI50,[8],> 100 µM (inactive)
same,GI50,[9],57.3 µM (inactive)
same,GI50,[11],78.9 µM (inactive)
same,GI50,[12],44.3 µM (inactive)
same,GI50,[14],> 100 µM (inactive)
same,GI50,[51],> 100 µM (inactive)
same,GI50,[17],> 10 µM (inactive)
same,GI50,[52],58.5 µM (inactive)
same,GI50,[21],> 100 µM (inactive)
same,GI50,[22],> 100 µM (inactive)
same,GI50,[23],> 100 µM (inactive)
same,GI50,[24],> 100 µM (inactive)
same,GI50,[25],> 100 µM (inactive)
same,GI50,[26],21.3 µM (inactive)
same,GI50,[27],> 100 µM (inactive)
same,GI50,[28],> 100 µM (inactive)
same,GI50,[29],34.8 µM (inactive)
same,GI50,[30],60.3 µM (inactive)
same,GI50,[31],47.6 µM (inactive)
same,GI50,[32],> 100 µM (inactive)
same,GI50,[33],> 100 µM (inactive)
same,GI50,[34],21.6 µM (inactive)
same,GI50,[35],> 100 µM (inactive)
same,GI50,[36],75.5 µM (inactive)
same,GI50,[37],21.2 µM (inactive)
same,GI50,[38],58.1 µM (inactive)
same,GI50,[53],> 100 µM (inactive)
same,GI50,[40],36.4 µM (inactive)
same,GI50,[41],75.3 µM (inactive)
same,GI50,[42],35.8 µM (inactive)
same,GI50,[54],31.9 µM (inactive)
same,GI50,[43],> 100 µM (inactive)
same,GI50,[55],44.5 µM (inactive)
same,GI50,[45],> 100 µM (inactive)
same,GI50,[47],> 100 µM (inactive)
same,GI50,[48],74.5 µM (inactive)
same,GI50,[49],83.2 µM (inactive)
CCCCN(Cc1ccccc1)/C(=N/C#N)N(Cc1ccccc1)Cc1ccccc1,GI50,[1],26.5 µM (inactive)
same,GI50,[56],16.1 µM (inactive)
same,GI50,[3],23.1 µM (inactive)
same,GI50,[4],10.9 µM (inactive)
same,GI50,[50],7.94 µM (inactive)
same,GI50,[5],27.9 µM (inactive)
same,GI50,[6],18.2 µM (inactive)
same,GI50,[7],20.7 µM (inactive)
same,GI50,[8],5.16 µM (inactive)
same,GI50,[57],15.8 µM (inactive)
same,GI50,[58],6.71 µM (inactive)
same,GI50,[9],8.59 µM (inactive)
same,GI50,[59],15.7 µM (inactive)
same,GI50,[10],10 µM (inactive)
same,GI50,[11],7.26 µM (inactive)
same,GI50,[12],10.6 µM (inactive)
same,GI50,[14],17.1 µM (inactive)
same,GI50,[15],13.4 µM (inactive)
same,GI50,[60],18.7 µM (inactive)
same,GI50,[61],19.2 µM (inactive)
same,GI50,[16],4.3 µM (inactive)
same,GI50,[51],15.7 µM (inactive)
same,GI50,[17],> 100 µM (inactive)
same,GI50,[52],21.1 µM (inactive)
same,GI50,[18],10.9 µM (inactive)
same,GI50,[19],31.3 µM (inactive)
same,GI50,[62],34.7 µM (inactive)
same,GI50,[63],14.2 µM (inactive)
same,GI50,[20],14.4 µM
same,GI50,[21],10.2 µM (inactive)
same,GI50,[22],12.1 µM (inactive)
same,GI50,[64],18.7 µM (inactive)
same,GI50,[23],17.6 µM (inactive)
same,GI50,[24],21.9 µM (inactive)
same,GI50,[25],17.1 µM (inactive)
same,GI50,[26],12.8 µM (inactive)
same,GI50,[65],23.4 µM (inactive)
same,GI50,[27],24.2 µM (inactive)
same,GI50,[28],9.95 µM (inactive)
same,GI50,[66],24.9 µM (inactive)
same,GI50,[29],29 µM (inactive)
same,GI50,[67],16.6 µM (inactive)
same,GI50,[30],13.1 µM (inactive)
same,GI50,[31],6.82 µM (inactive)
same,GI50,[32],11.3 µM (inactive)
same,GI50,[33],30.2 µM (inactive)
same,GI50,[34],36.6 µM (inactive)
same,GI50,[35],15.8 µM (inactive)
same,GI50,[36],26.7 µM (inactive)
same,GI50,[37],16.1 µM (inactive)
same,GI50,[38],14 µM (inactive)
same,GI50,[53],18.8 µM (inactive)
same,GI50,[39],24.1 µM (inactive)
same,GI50,[40],36.6 µM (inactive)
same,GI50,[42],24.4 µM (inactive)
same,GI50,[54],17.3 µM (inactive)
same,GI50,[43],26.1 µM (inactive)
same,GI50,[55],11.4 µM (inactive)
same,GI50,[44],14.8 µM (inactive)
same,GI50,[45],9.84 µM (inactive)
same,GI50,[46],38.1 µM (inactive)
same,GI50,[47],27 µM (inactive)
same,GI50,[48],12.6 µM (inactive)
same,GI50,[49],14.6 µM (inactive)
